Like-named read-outs stand apart in the source and are kept apart here.
Experiments:
[1] = molecular target: human recombinant dopamine D1 receptor (Homo sapiens, UniProt P21728); assay: Dopamine D1 receptor binding, [3H]SCH 23390 displacement; details: for inhibition at 0.1 µM: read-out: D1 % inhibition
male C57Bl/6 mice = assay: Mouse formalin paw assay for inflammatory pain; assay type: in vivo; details: SC administration 30 min prior; morphine 5 mg/kg; compound 5 0.3, 1 or 3 mg/kg
[2] = molecular target: T1, human recombinant 5-HT transporter (SERT) (Homo sapiens, UniProt P31645); assay: biochemical; assay type: binding; details: read-out: SERT % inhibition
T1 construct: host or cells: CHO-S / SERT (h), cell membrane homogenates
T1 sequence (P31645 whole entry): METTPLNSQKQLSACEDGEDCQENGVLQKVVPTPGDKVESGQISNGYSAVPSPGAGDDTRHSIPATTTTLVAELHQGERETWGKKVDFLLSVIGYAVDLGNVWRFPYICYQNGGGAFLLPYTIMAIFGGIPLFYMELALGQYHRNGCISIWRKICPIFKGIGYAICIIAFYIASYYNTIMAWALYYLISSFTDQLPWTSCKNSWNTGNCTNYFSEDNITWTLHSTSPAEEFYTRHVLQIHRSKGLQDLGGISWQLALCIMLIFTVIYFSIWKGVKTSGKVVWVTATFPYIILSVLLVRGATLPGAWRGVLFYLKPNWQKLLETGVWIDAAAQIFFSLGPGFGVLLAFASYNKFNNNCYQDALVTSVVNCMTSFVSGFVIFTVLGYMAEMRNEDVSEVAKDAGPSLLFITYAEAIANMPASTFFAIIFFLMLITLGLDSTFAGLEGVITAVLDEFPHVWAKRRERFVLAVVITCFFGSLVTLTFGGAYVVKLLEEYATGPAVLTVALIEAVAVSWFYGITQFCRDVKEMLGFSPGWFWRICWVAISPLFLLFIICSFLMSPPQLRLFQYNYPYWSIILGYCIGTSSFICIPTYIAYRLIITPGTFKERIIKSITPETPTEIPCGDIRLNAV

[3] = molecular target: T2, human full-length recombinant serotonin 5-HT2A receptors (Homo sapiens, UniProt P28223); assay: biochemical; assay type: binding; details: read-out: 5-HT2A % inhibition
T2 construct: human full-length recombinant serotonin 5-HT2A receptors expressed in HEK-293E cells
T2 sequence (P28223 whole entry): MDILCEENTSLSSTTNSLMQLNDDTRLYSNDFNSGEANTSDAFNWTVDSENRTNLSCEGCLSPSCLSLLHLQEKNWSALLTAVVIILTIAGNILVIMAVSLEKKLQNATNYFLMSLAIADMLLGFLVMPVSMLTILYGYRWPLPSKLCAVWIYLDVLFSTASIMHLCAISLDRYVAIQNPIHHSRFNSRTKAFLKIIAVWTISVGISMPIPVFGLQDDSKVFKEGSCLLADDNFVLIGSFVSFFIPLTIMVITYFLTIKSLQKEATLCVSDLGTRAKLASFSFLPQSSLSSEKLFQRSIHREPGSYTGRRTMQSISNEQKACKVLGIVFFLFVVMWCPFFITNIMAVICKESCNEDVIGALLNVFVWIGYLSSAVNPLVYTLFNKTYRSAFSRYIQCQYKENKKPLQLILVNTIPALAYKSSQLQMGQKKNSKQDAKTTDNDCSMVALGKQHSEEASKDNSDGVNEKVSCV

[4] = molecular target: human recombinant dopamine D2 short receptor (Homo sapiens, UniProt P14416); assay: Dopamine D2 receptor binding, [3H]7-OH-DPAT displacement; details: inhibition at 100 nM; NI = no inhibition; read-out: D2 % inhibition
Sequence of human recombinant dopamine D2 short receptor (P14416 1-414 isoform P14416-2): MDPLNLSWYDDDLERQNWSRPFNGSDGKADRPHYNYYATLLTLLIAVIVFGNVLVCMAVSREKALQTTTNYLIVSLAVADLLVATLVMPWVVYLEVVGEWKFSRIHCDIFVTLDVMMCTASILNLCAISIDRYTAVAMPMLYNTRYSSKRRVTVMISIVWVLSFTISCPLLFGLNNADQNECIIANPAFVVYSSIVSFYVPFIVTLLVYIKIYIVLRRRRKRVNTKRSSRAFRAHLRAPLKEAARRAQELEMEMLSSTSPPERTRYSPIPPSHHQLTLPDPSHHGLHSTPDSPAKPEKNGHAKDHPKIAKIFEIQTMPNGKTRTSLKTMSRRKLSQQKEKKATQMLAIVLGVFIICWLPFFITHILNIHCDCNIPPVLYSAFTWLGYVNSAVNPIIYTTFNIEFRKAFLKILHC

male CD-1 mice = details: mouse, in vivo
[5] = inhibition at 100 nM, NI = no inhibition

Sequence of human recombinant dopamine D1 receptor (P21728 whole entry): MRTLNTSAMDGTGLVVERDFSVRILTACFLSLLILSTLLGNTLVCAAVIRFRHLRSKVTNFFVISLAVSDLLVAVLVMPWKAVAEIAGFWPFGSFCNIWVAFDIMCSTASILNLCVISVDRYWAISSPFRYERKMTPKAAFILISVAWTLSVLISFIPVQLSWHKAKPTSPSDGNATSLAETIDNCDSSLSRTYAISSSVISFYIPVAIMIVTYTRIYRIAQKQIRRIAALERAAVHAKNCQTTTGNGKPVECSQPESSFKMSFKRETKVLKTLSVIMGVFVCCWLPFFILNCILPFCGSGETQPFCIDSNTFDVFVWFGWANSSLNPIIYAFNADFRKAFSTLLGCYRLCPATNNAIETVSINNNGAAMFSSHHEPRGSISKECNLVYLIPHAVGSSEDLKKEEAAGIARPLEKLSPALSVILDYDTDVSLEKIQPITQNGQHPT

Row | Structure (SMILES) | D1(Ki or (% Inhibition)): % inhibition [1] | inhibition at 0.1 µM [1] | licking response to formalin injection (male C57Bl/6 mice) | inhibition at 0.1 µM [2] | inhibition at 0.1 µM [3] | inhibition at 0.1 µM [4] | inhibition at 0.1 µM [1, 5] | inhibition at 0.2 µM [2] | analgesic effect after pretreatment with naloxone (male CD-1 mice) | latency to tail flick compared to the vehicle (male CD-1 mice)
1 | O=C1CN2c3c(cccc3[C@@H]3CN(CCCOc4ccc(F)cc4)CC[C@@H]32)N1 [compound 5, (6bR,10aS)-8-(3-(4-Fluorophenoxy)propyl)-6b,7,8,9,10,10a-hexahydro-1H-pyrido[3′,4′:4,5]pyrrolo[1,2,3-de]quinoxalin-2(3H)-one] | 50 (44%) | 44% | dose-dependently reduced | – | – | – | – | – | – | –
2 | CC1C(=O)Nc2cccc3c2N1[C@H]1CCN(CCCOc2ccc(F)cc2)C[C@@H]31 (stereo partly drawn) [compound 51, (6bR,10aS)-8-(3-(4-Fluorophenoxy)propyl)-1-methyl-6b,7,8,9,10,10a-hexahydro-1H-pyrido[3′,4′:4,5]-pyrrolo[1,2,3-de]quinoxalin-2(3H)-one] | – | – | – | < 0% | 88% | 49% | 26% | – | – | –
3 | O=C1CCN2c3c(cccc3[C@@H]3CN(CCCOc4ccc(F)cc4)CC[C@@H]32)N1 [compound 53, (8aS,12aR)-11-(3-(4-Fluorophenoxy)propyl)-6,7,8a,9,10,11,12,12a-octahydro-[1,4]diazepino[3,2,1-hi]pyrido[4,3-b]indol-5(4H)-one] | – | – | – | – | 93% | 24% | 14% | 29% | – | –
4 | CN1CC[C@]23c4c5ccc(O)c4O[C@H]2[C@@H](O)C=C[C@H]3[C@H]1C5 [morphine] | – | – | significantly suppressed | – | – | – | – | – | attenuated | significantly increased

From publication PMC11181336, “Discovery of ITI-333, a Novel Orally Bioavailable Molecule Targeting Multiple Receptors for the Treatment of Pain and Other Disorders” (Journal of Medicinal Chemistry, 2024)
